Laboratory results taken from ChEMBL document CHEMBL4251577, “Synthesis and antiproliferative activity of pyrrolo[2,3-b]pyridine derivatives bearing the 1,8-naphthyridin-2-one moiety” (Eur J Med Chem, 2018).

Columns and labels:
A549 [1] = experiment: cells; settings: Homo sapiens, A549, 72 h
Description: Antiproliferative activity against human A549 cells after 72 hrs by MTT assay

HT-29 [2] = experiment: cells; settings: Homo sapiens, HT-29, 72 h
U-87 MG = experiment: Antiproliferative activity against human U87MG cells after 72 hrs by MTT assay; type: functional, cell-based, U-87MG ATCC
NCI-H460 [3] = experiment: Antiproliferative activity against human NCI-H460 cells after 72 hrs by MTT assay; type: functional, cell-based; settings: NCI-H460, 72 h
[4] = molecular target: Epidermal growth factor receptor (Homo sapiens, UniProt P00533); experiment: Inhibition of EGFR (unknown origin) using poly(Glu, Tyr) 4:1 as substrate after 30 mins by HTRF assay
Chain of Epidermal growth factor receptor (P00533 whole entry): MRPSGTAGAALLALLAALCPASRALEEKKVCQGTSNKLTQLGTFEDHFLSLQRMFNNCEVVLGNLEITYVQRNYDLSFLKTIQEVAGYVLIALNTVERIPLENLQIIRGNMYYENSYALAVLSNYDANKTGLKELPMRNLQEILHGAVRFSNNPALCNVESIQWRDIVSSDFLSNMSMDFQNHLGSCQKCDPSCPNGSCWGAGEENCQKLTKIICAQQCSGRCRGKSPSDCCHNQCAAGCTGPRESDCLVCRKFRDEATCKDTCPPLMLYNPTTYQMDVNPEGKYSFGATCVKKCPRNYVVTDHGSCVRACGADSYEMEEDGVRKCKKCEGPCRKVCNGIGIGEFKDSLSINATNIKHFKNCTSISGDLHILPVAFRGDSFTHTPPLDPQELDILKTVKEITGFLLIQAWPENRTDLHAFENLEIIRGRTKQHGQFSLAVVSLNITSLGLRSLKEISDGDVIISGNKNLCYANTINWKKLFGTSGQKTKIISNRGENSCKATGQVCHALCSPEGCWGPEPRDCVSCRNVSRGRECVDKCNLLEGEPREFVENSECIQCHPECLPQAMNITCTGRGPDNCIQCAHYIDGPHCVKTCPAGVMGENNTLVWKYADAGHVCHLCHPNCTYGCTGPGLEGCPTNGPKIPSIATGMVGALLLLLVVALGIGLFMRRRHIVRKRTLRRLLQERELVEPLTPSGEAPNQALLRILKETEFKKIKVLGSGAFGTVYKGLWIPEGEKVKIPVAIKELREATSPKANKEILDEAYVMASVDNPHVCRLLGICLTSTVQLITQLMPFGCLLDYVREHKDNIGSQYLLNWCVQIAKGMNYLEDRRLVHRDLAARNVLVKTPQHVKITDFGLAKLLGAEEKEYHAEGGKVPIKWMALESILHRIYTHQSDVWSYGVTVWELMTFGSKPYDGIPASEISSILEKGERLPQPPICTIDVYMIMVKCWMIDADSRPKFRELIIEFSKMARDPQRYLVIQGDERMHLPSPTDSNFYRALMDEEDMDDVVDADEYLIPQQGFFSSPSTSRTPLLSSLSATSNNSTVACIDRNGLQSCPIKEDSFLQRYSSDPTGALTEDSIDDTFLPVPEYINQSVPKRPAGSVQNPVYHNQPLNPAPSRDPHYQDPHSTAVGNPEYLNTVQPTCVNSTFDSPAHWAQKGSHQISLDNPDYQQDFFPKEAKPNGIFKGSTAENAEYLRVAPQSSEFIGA

[5] = molecular target: Vascular endothelial growth factor receptor 2 (Homo sapiens, UniProt P35968); experiment: Inhibition of VEGFR2 (unknown origin) using poly(Glu, Tyr) 4:1 as substrate after 30 mins by HTRF assay
Chain of Vascular endothelial growth factor receptor 2 (P35968 whole entry): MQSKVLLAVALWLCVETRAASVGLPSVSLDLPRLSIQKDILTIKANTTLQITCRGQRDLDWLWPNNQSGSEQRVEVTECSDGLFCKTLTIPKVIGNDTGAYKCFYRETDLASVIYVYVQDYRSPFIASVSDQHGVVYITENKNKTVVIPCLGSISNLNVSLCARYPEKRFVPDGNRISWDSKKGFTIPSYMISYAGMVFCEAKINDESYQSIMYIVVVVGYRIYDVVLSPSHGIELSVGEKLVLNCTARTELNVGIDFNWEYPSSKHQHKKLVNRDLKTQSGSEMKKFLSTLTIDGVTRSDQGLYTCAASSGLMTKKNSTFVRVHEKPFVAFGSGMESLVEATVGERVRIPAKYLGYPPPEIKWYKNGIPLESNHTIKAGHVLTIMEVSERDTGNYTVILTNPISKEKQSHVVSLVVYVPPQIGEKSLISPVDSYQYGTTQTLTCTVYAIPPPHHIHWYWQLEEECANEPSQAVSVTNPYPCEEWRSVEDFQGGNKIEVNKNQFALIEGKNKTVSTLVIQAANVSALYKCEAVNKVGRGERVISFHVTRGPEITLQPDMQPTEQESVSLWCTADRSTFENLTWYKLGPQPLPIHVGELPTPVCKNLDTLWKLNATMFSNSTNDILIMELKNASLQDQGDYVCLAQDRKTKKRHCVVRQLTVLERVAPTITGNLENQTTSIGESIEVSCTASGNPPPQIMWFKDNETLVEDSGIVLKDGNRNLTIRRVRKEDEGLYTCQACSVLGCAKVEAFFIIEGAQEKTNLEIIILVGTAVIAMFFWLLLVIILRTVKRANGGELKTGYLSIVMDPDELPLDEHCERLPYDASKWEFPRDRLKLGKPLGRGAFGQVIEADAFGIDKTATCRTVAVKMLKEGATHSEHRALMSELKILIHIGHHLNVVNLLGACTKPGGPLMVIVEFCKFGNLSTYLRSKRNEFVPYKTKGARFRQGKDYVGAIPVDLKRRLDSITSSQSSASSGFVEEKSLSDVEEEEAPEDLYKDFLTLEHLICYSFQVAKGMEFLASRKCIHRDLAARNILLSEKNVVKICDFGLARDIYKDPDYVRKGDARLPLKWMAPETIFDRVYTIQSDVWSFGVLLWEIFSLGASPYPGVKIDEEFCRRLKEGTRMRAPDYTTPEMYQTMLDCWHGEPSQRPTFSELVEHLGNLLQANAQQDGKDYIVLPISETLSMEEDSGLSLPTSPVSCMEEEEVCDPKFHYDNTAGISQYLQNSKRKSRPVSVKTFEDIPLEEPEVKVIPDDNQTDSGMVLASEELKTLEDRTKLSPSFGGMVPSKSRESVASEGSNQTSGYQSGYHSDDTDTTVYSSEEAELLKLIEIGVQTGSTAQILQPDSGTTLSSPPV

[6] = molecular target: Platelet-derived growth factor receptor beta (Homo sapiens, UniProt P09619); experiment: Inhibition of PDGFRbeta (unknown origin) using poly(Glu, Tyr) 4:1 as substrate after 30 mins by HTRF assay
Chain of Platelet-derived growth factor receptor beta (P09619 whole entry): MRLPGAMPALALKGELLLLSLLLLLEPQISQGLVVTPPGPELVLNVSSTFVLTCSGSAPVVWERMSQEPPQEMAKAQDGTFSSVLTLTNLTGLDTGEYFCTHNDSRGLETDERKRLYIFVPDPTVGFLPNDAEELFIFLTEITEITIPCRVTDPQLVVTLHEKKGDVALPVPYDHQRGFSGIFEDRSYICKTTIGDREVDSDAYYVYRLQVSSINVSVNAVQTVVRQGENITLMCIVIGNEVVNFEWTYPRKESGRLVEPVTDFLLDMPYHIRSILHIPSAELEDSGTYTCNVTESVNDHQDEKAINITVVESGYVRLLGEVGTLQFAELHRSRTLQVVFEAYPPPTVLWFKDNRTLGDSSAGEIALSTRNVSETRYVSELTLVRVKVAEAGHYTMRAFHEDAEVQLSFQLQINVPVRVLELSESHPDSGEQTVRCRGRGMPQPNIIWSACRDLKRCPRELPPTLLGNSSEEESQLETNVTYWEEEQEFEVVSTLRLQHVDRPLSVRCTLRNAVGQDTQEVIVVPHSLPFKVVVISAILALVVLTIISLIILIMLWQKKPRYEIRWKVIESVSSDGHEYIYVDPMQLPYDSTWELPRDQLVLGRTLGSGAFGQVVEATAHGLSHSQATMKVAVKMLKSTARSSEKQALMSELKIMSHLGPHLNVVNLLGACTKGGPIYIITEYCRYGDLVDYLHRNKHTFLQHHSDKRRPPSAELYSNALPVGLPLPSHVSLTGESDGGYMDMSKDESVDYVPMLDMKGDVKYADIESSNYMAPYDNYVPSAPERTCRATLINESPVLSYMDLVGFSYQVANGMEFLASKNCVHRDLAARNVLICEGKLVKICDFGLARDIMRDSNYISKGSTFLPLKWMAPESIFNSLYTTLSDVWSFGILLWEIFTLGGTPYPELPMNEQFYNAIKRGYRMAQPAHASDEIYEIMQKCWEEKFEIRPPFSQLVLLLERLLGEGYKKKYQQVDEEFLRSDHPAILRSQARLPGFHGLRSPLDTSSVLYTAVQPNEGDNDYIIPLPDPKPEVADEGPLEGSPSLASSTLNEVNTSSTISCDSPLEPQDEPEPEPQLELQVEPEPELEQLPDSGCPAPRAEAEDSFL

[7] = molecular target: T1, Receptor-type tyrosine-protein kinase FLT3 (Homo sapiens, UniProt P36888); experiment: Inhibition of Flt-3 (unknown origin) using poly(Glu, Tyr) 4:1 as substrate after 30 mins by HTRF assay
T1 sequence (P36888 whole entry): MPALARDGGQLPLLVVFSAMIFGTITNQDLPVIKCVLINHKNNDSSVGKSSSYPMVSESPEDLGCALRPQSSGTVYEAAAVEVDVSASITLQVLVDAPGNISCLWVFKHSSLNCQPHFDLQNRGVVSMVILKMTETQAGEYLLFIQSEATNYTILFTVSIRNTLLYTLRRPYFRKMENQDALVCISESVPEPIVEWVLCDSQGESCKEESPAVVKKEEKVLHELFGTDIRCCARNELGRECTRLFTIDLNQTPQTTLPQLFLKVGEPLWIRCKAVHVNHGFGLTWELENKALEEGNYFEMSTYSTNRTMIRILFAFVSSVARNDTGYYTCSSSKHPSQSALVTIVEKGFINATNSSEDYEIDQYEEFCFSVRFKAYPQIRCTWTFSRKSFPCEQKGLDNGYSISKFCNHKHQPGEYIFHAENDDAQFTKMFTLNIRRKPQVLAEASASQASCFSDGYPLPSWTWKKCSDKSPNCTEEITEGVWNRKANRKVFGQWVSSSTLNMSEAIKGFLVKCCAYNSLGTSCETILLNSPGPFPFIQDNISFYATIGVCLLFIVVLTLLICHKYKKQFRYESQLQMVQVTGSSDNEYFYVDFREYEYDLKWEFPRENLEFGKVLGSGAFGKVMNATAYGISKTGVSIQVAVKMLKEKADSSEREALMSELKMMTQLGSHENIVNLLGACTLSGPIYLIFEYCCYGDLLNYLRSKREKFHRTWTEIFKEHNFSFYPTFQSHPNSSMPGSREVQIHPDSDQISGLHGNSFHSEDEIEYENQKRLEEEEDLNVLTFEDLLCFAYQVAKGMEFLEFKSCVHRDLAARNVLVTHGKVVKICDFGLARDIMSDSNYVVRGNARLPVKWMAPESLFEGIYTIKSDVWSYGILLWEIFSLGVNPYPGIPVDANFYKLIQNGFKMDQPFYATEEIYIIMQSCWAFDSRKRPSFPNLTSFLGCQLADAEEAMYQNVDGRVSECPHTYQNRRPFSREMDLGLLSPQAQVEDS

[8] = molecular target: Hepatocyte growth factor receptor (Homo sapiens, UniProt P08581); experiment: Inhibition of cMET (unknown origin) using poly(Glu,Tyr) 4:1 substrate after 30 mins by HTFR analysis
[9] = molecular target: Mast/stem cell growth factor receptor Kit (Homo sapiens, UniProt P10721); experiment: Inhibition of cKIT (unknown origin) using poly(Glu, Tyr) 4:1 as substrate after 30 mins by HTRF assay
Chain of Mast/stem cell growth factor receptor Kit (P10721 whole entry): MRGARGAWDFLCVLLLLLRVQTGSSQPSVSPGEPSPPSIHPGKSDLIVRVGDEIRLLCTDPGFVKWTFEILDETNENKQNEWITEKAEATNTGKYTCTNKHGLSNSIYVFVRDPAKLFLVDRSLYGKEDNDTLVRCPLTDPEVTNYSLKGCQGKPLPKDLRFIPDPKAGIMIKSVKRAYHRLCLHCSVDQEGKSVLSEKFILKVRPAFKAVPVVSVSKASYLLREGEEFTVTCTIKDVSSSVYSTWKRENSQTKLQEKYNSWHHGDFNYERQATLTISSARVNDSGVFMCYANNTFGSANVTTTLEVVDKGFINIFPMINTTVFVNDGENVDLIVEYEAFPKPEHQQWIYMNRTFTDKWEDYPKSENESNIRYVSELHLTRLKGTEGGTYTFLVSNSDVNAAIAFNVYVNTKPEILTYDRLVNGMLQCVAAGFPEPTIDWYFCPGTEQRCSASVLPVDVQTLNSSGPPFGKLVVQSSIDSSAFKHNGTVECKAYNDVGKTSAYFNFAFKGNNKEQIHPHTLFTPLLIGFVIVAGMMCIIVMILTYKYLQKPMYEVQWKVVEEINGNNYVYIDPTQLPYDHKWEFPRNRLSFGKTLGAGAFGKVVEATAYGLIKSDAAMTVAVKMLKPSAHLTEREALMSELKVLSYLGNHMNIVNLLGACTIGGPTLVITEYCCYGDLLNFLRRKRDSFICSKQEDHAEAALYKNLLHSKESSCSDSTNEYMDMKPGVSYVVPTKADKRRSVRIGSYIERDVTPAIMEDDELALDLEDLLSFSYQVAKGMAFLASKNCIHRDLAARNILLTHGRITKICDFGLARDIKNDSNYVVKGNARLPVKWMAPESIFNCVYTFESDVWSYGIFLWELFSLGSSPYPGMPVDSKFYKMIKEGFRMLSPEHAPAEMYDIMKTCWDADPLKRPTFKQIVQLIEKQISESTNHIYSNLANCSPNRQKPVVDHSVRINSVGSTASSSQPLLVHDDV

HT-29 [10] = experiment: Potency index, ratio of foretinib IC50 to compound IC50 for antiproliferative activity against human HT-29 cells; type: functional
A549 [11] = experiment: Potency index, ratio of foretinib IC50 to compound IC50 for antiproliferative activity against human A549 cells; type: functional
NCI-H460 [12] = experiment: Potency index, ratio of foretinib IC50 to compound IC50 for antiproliferative activity against human NCI-H460 cells; type: functional

Row | IC50 (A549 [1]) [nM] | IC50 (HT-29 [2]) [nM] | IC50 (U-87 MG) [nM] | IC50 (NCI-H460 [3]) [nM] | SMILES | further results
1 | 680 | 560 |  |  | O=C(Nc1ccc(Oc2ccnc3[nH]ccc23)cc1)c1cc2cccnc2n(-c2ccc(F)c(Cl)c2)c1=O | 
2 | 680 | 690 |  |  | Cn1ccc2c(Oc3ccc(NC(=O)c4cc5cccnc5n(-c5ccc(Br)cc5)c4=O)cc3)ccnc21 | 
3 | 190 | 160 | 1260 | 180 | O=C(Nc1ccc(Oc2ccnc3[nH]ccc23)c(F)c1)c1cc2cccnc2n(-c2ccccc2)c1=O | 
4 | 2750 | 1290 |  |  | COc1ccc(-n2c(=O)c(C(=O)Nc3ccc(Oc4ccnc5c4ccn5C)c(F)c3)cc3cccnc32)cc1 | 
5 | 850 | 620 | 5030 | 560 | Cn1ccc2c(Oc3ccc(NC(=O)c4cc5cccnc5n(-c5ccccc5)c4=O)cc3)ccnc21 | 
6 | 3530 | 5830 | 10200 | 6010 | Cn1ccc2c(Oc3ccc(NC(=O)c4cc5cccnc5n(-c5ccc(C(F)(F)F)cc5Cl)c4=O)cc3F)ccnc21 | 
7 | 210 | 160 | 1360 | 190 | O=C(Nc1ccc(Oc2ccnc3[nH]ccc23)cc1)c1cc2cccnc2n(-c2ccc(F)cc2)c1=O | 
8 | 610 | 540 |  |  | COc1ccc(-n2c(=O)c(C(=O)Nc3ccc(Oc4ccnc5[nH]ccc45)c(F)c3)cc3cccnc32)cc1 | 
9 | 820 | 1210 | 2350 | 1210 | Cn1ccc2c(Oc3ccc(NC(=O)c4cc5cccnc5n(-c5ccc(F)c(Cl)c5)c4=O)cc3)ccnc21 | 
10 | 110 | 82 |  |  | O=C(Nc1ccc(Oc2ccnc3[nH]ccc23)c(F)c1)c1cc2cccnc2n(-c2ccc(Cl)cc2)c1=O | 
11 | 350 | 220 |  |  | Cn1ccc2c(Oc3ccc(NC(=O)c4cc5cccnc5n(-c5ccc(Cl)cc5)c4=O)cc3F)ccnc21 | 
12 | 630 | 730 |  |  | Cn1ccc2c(Oc3ccc(NC(=O)c4cc5cccnc5n(-c5ccc(Cl)cc5)c4=O)cc3)ccnc21 | 
13 | 360 | 290 | 1580 | 380 | O=C(Nc1ccc(Oc2ccnc3[nH]ccc23)cc1)c1cc2cccnc2n(-c2ccccc2)c1=O | 
14 | 3560 | 2460 |  |  | Cn1ccc2c(Oc3ccc(NC(=O)c4cc5cccnc5n(-c5ccc(F)c(Cl)c5)c4=O)cc3F)ccnc21 | 
15 | 930 | 1260 | 2350 | 960 | COc1ccc(-n2c(=O)c(C(=O)Nc3ccc(Oc4ccnc5[nH]ccc45)cc3)cc3cccnc32)cc1 | 
16 | 430 | 510 | 3590 | 550 | Cn1ccc2c(Oc3ccc(NC(=O)c4cc5cccnc5n(-c5ccccc5)c4=O)cc3F)ccnc21 | 

Row | IC50 (A549 [1]) [nM] | IC50 (HT-29 [2]) [nM] | IC50 (U-87 MG) [nM] | IC50 (NCI-H460 [3]) [nM] | SMILES | further results
17 | 3460 | 2050 | 5150 | 1920 | COc1ccc(-n2c(=O)c(C(=O)Nc3ccc(Oc4ccnc5c4ccn5C)cc3)cc3cccnc32)cc1 | 
18 | 3230 | 2160 | 6030 | 1950 | O=C(Nc1ccc(Oc2ccnc3[nH]ccc23)cc1)c1cc2cccnc2n(-c2ccc(C(F)(F)F)cc2Cl)c1=O | 
19 | 630 | 310 | 5230 | 1050 | O=C(Nc1ccc(Oc2ccnc3[nH]ccc23)c(F)c1)c1cc2cccnc2n(-c2ccc(F)c(Cl)c2)c1=O | 
20 | 390 | 330 | 2580 | 420 | Cn1ccc2c(Oc3ccc(NC(=O)c4cc5cccnc5n(-c5ccc(Br)cc5)c4=O)cc3F)ccnc21 | 
21 | 290 | 280 | 3370 | 290 | O=C(Nc1ccc(Oc2ccnc3[nH]ccc23)cc1)c1cc2cccnc2n(-c2ccc(Cl)cc2)c1=O | 
22 | 210 | 120 | 1510 | 260 | O=C(Nc1ccc(Oc2ccnc3[nH]ccc23)c(F)c1)c1cc2cccnc2n(-c2ccc(Br)cc2)c1=O | 
23 | 1570 | 2360 |  |  | O=C(Nc1ccc(Oc2ccnc3[nH]ccc23)cc1)c1cc2cccnc2n(-c2ccc(Br)cc2F)c1=O | 
24 | 1630 | 2580 |  |  | Cn1ccc2c(Oc3ccc(NC(=O)c4cc5cccnc5n(-c5ccc(Br)cc5F)c4=O)cc3)ccnc21 | 
25 | 62 | 36 | 620 | 87 | O=C(Nc1ccc(Oc2ccnc3[nH]ccc23)c(F)c1)c1cc2cccnc2n(-c2ccc(F)cc2)c1=O | IC50 [4]: 633 nM; IC50 [5]: 152 nM; IC50 [6]: 1.81 nM; IC50 [7]: 1.16 nM; IC50 [8]: 1.92 nM; IC50 [9]: 684 nM; Ratio IC50 (HT-29 [10]): 7.2; Ratio IC50 (A549 [11]): 5.2; Ratio IC50 (NCI-H460 [12]): 3.2
26 | 1020 | 1360 |  |  | O=C(Nc1ccc(Oc2ccnc3[nH]ccc23)c(F)c1)c1cc2cccnc2n(-c2ccc(C(F)(F)F)cc2Cl)c1=O | 
27 | 280 | 160 | 1320 | 250 | Cn1ccc2c(Oc3ccc(NC(=O)c4cc5cccnc5n(-c5ccc(F)cc5)c4=O)cc3F)ccnc21 | 
28 | 280 | 270 |  |  | O=C(Nc1ccc(Oc2ccnc3[nH]ccc23)cc1)c1cc2cccnc2n(-c2ccc(Br)cc2)c1=O | 
29 | 210 | 250 | 2120 | 260 | Cn1ccc2c(Oc3ccc(NC(=O)c4cc5cccnc5n(-c5ccc(F)cc5)c4=O)cc3)ccnc21 | 
30 | 8250 | 6050 | 12600 | 6950 | Cn1ccc2c(Oc3ccc(NC(=O)c4cc5cccnc5n(-c5ccc(C(F)(F)F)cc5Cl)c4=O)cc3)ccnc21 | 
31 | 2690 | 3290 | 6470 | 3150 | Cn1ccc2c(Oc3ccc(NC(=O)c4cc5cccnc5n(-c5ccc(Br)cc5F)c4=O)cc3F)ccnc21 | 
32 | 460 | 820 |  |  | O=C(Nc1ccc(Oc2ccnc3[nH]ccc23)c(F)c1)c1cc2cccnc2n(-c2ccc(Br)cc2F)c1=O | 
